Series [1] deals with T1, AR (Homo sapiens, UniProt P10275, T878A).
T1 construct: host or cells: LNCaP
T1 sequence (P10275 1-920 T878A): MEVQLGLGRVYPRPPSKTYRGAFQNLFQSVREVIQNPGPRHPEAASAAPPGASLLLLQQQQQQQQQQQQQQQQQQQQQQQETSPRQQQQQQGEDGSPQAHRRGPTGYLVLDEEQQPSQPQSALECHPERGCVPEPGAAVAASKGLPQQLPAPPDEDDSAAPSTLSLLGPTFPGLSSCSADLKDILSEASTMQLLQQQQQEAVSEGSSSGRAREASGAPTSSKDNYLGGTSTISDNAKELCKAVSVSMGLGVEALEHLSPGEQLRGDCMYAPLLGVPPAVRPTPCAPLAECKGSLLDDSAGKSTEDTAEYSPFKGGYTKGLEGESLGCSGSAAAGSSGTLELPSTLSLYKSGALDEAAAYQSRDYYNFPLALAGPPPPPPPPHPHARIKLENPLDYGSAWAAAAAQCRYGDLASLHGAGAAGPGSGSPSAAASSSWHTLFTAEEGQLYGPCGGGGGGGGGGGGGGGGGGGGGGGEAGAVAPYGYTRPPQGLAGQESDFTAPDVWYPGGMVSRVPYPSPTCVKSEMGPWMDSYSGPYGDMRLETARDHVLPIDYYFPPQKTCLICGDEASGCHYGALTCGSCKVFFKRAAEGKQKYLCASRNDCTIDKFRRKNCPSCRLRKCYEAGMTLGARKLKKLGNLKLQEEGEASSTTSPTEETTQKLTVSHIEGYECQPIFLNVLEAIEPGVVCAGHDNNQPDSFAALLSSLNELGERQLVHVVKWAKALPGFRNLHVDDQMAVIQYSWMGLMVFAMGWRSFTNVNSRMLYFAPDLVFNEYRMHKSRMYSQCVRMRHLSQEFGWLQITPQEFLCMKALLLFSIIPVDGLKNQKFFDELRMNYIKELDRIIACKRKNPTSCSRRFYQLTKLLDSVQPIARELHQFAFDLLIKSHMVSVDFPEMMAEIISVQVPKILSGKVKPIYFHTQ
In words: AR down-regulation, western blot analysis in LNCaP cells. The series is classed as cell-based. Particulars: at 15 μM, 24 h. Here is the method:
(§1) For the Western blot analyses, LNCaP or CWR22v1 prostate cancer cells were cultured. The cells were then treated with the indicated compounds and whole cell lysates were prepared using RIPA lysis buffer (Sigma Aldrich) and protease and phosphatase inhibitors (Sigma Aldrich). All of the antibodies were ordered from cell signaling technology. Protein content was determined using the Bradford Assay (Bio-Rad, Hercules, Calif., USA). Protein was subjected to SDS-PAGE and transferred onto nitrocellulosemembrane. Membranes were then incubated with secondary antibody (cell signaling technology) at room temperature for 1 hour. Bands were visualized by chemiluminescence (Millipore). Protein expression was normalized to β-actin and densitometry was carried out using Image J or ImageQuant 5.0 (Molecular Dynamics, Sunnyvale, Calif., USA). CWR22Rv1 cells were used for endogenous levels of splice variant AR-3. Protein levels were analyzed with respective antibodies; full length AR and β-actin antibodies were purchased from cell signaling, antibody specific for splice variant AR-3 was obtained from Dr. Yun Qiu, University of Maryland, School of Medicine, Baltimore.
For orientation: Immunoblotting shows a protein as a band on a membrane.

The next series has as its target T2, human CYP17A1 (CYP171dH) (Homo sapiens, UniProt P05093).
T2 sequence (P05093 with tags, fused parts or gaps limits assumed): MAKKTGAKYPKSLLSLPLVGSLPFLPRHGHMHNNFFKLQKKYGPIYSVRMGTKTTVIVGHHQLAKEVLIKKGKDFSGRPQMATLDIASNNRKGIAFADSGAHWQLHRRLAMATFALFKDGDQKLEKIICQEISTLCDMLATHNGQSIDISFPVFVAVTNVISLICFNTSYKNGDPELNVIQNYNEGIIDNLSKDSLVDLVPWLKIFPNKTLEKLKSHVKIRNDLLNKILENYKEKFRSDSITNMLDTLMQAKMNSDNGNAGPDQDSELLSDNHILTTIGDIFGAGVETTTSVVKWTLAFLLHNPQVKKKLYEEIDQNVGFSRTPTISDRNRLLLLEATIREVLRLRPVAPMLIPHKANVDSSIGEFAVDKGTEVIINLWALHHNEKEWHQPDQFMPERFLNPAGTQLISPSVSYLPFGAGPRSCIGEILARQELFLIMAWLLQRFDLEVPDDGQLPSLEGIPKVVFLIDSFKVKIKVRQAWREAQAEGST
In words: CYP17 inhibition studies. The series is classed as biochemical. Particulars: each in duplicate, from dose-response curves. Here is the method: Some compounds were evaluated for their ability to inhibit CYP17 enzyme. A truncated version of human CYP17A1 (CYP171dH) was expressed in E. coli and then purified to homogeneity.

Series [2] concerns the target T1, AR. The experiment in a line: Immunocytochemical analysis of AR expression in LNCaP cells. Format: cell-based. Particulars: 5 μM for 48 h.
In the next series the target is T3, AR-3 (also called AR-V7) (Homo sapiens, UniProt P10275).
T3 construct: endogenous in cells; host or cells: CWR22Rv1
T3 sequence (P10275 1-644 isoform P10275-3): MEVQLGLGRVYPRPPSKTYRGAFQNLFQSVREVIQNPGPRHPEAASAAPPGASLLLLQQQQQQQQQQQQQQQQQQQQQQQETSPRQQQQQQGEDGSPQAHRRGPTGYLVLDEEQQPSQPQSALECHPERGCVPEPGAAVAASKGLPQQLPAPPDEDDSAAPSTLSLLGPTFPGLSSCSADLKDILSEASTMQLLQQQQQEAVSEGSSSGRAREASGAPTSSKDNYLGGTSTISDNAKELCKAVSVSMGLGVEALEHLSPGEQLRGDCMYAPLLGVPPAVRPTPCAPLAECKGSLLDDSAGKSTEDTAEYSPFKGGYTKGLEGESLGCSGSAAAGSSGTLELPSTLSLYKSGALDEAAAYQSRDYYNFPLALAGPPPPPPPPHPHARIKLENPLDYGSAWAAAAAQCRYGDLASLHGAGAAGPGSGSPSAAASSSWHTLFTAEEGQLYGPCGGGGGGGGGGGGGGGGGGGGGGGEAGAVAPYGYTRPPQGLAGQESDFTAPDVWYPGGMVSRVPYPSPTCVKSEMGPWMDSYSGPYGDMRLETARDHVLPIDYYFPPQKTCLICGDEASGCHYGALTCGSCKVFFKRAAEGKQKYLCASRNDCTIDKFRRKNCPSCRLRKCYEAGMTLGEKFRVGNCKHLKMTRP
The experiment in a line: Down-regulation of truncated AR splice variant, western blot in CWR22rv1 cells. The series is classed as cell-based. The note with it: CWR22rv1 prostate cancer cell line. As for the experimental part: (§2) Due to the potential implication of AR splice variants lacking the ligand-binding domain (truncated AR) in driving the progression of CRPC, the effects of the compounds on the down-regulation of AR-3 (also called AR-V7) were determined.
as §1, with “USA).” for “USA). CWR22Rv1 cells were used for endogenous levels of splice variant AR-3. Protein levels were analyzed with respective antibodies; full length AR and β-actin antibodies were purchased from cell signaling, antibody specific for splice variant AR-3 was obtained from Dr. Yun Qiu, University of Maryland, School of Medicine, Baltimore.”

Another series deals with LNCaP cells. In words: MTT colorimetric anti-proliferative assay. Format: cell-based, human. Here is the method:
The cells were treated for 7 days with renewal of test compound and media on day 4. On the 7th day, medium was renewed and MTT (3-(4,5-dimethylthiazol-2-yl)-2,5-diphenyl-2H-tetrazolium bromide) (Sigma, St Louis, Mo., USA) solution (0.5 mg MTT per ml of media) was added to the medium such that the ratio of MTT: medium was 1:10. The cells were incubated with MTT for 2 hours. The medium was then aspirated and DMSO was added to solubilize the violet MTT-formazan product.

A further series has as its target T4, AR in LNCaP cells (Homo sapiens, UniProt P10275, T878A).
T4 sequence (P10275 1-920 T878A): T1 sequence (P10275 1-920 T878A)
The experiment in a line: Whole cell competitive binding assay with [3H]R1881. Particulars: read-out: inhibition of [3H]R1881 binding / displacement.

The subject of another series is full-length AR. The experiment in a line: Down-regulation of full-length AR, western blot in CWR22rv1 cells. Format: cell-based, human. The note with it: CWR22rv1 prostate cancer cell line. As for the experimental part: as §2
as §1, with “USA).” for “USA). CWR22Rv1 cells were used for endogenous levels of splice variant AR-3. Protein levels were analyzed with respective antibodies; full length AR and β-actin antibodies were purchased from cell signaling, antibody specific for splice variant AR-3 was obtained from Dr. Yun Qiu, University of Maryland, School of Medicine, Baltimore.”

Values joined by “and” are separate entries in the source; they are usually repeats but may differ in a detail not shown here. Equal values may be shown once.

Experimental for AR in LNCaP cells: The androgen receptor competitive binding assays were performed with the synthetic androgen methyltrienolone [^3H]R1881. […] To determine the kinetics of [^3H]R1881 binding to the LNCaP AR cells were plated (2-3×10^5 cells/well) in 24 well multiwell dishes in steroid-free medium and allowed to attach. […] Following a 2 hour incubation period at 37° C., cells were washed twice with ice-cold DPBS and solubilized in DPBS containing 0.5% SDS and 20% glycerol. Extracts were removed and cell associated radioactivity counted in a scintillation counter. The data was analyzed, including Kd and Bmax determination, by nonlinear regression using Graphpad Prism software (GraphPad Software, Inc, San Diego, Calif.). When the concentration of [^3H]R1881 required to almost saturate AR in both cell lines was established (5.0 nM), the ability of the test compounds (1 nM-10 μM) to displace [^3H]R1881 (5.0 nM) from the receptors was determined as described above. The IC50 of each compound was determined by nonlinear regression with Graphpad Prism software (GraphPad Software, Inc, San Diego, Calif.).

Broadly, the IC50 is the concentration needed to halve the response being measured. Low values mean higher potency, high ones lower potency. What is called melting point is the temperature, or range, at which the solid turns liquid. As a reminder, the GI50 is the concentration giving 50% growth inhibition. Take `C[C@]12CC[C@H](OC(=O)n3ccnc3)CC1=CC[C@@H]1[C@@H]2CC[C@]2(C)C(n3cnc4ccccc43)=CC[C@@H]12` [Compound 47, 3β-(1H-Imidazole-1-carboxylate)-17-(1H-benzimidazol-1-yl)-androsta-5,16-diene]: the melting point was in the range of 194 to 196 °C. Also, the “AR down-regulation, fold more active than compound 5” value on AR [1] is recorded as “greater than 8 fold”. In addition, the IC50 against human CYP17A1 (CYP171dH) was 93.7 to 258 µM and 122 µM. Moreover, on AR [2], the “AR levels in the nucleus” value is given as “significant decrease in AR levels in the nucleus”. At AR-3 (also called AR-V7), the “down-regulation of truncated AR (AR-3)” value is reported as “significant down-regulation”. Also, the GI50 with LNCaP cells (Homo sapiens, LNCaP, 168 h, LNCaP, MTT, 7 days, Table 4, read-out: GI50 of C-3 modified compounds) stood at 0.87 µM. For the same compound, the “fold superior anti-proliferative activity” value in the series with LNCaP cells (relative to compound 5) is roughly 4 fold. Besides, on AR in LNCaP cells, the inhibition at 30 µM stood at 20%. Besides, in the series on full-length AR, the “down-regulation of full-length AR” value is recorded as “significant down-regulation”.

These data come from patent US9884067B2, “Androgen receptor down-regulating agents and uses thereof” (UNIVERSITY OF MARYLAND EASTERN SHORE, priority 2013, dated 2018).
